Data as given in patent US20180000085A1, “USE OF PICOLINAMIDE COMPOUNDS WITH FUNGICIDAL ACTIVITY” (DOW AGROSCIENCES LLC, priority 2014, published 2018).

What was measured:
Zymoseptoria tritici = assay: Leaf blotch of wheat (SEPTTR) disease control on wheat seedlings; type: in vivo; design: key to SEPTTR 1DP, HV activity at 100 ppm (% control rating) / SEPTTR 3DC, HV activity at 100 ppm (% control rating) / SEPTTR disease control, 1DP / SEPTTR disease control, 3DC / SEPTTR 1DP disease control rating, HV activity / SEPTTR 3DC disease control rating, HV activity / SEPTTR 3DC, LV activity at 125.1 g/H (% Control rating) / SEPTTR 1DP, LV activity at 125.1 g/H (% Control rating) / SEPTTR 1DP disease control rating, LV activity at 125.1 g/H / SEPTTR 3DC disease control rating, LV activity at 125.1 g/H / SEPTTR 3DC disease control rating, HV activity at 100 ppm / SEPTTR 1DP disease control rating, HV activity at 100 ppm / HV activity at 100 ppm SEPTTR 3DC (disease control rating) / HV activity at 100 ppm SEPTTR 1DP (disease control rating) / LV activity at 125.1 g/H SEPTTR 1DP (disease control rating) / LV activity at 125.1 g/H SEPTTR 3DC (disease control rating): A: > 80; B: ≤ 80; C: Not Tested; D: No Activity Observed in the Reported Assay; conditions: low volume application, 125.1 g/H; for SEPTTR 1DP disease control rating, LV activity at 125.1 g/H: 1 day protectant; for SEPTTR 3DC disease control rating, LV activity at 125.1 g/H: 3 day curative
Puccinia triticina = assay: Wheat brown rust (PUCCRT) disease control on wheat seedlings; type: in vivo; design: key to PUCCRT 3DC, HV activity at 100 ppm (% control rating) / PUCCRT disease control, 3DC / PUCCRT 1DP disease control rating, HV activity / PUCCRT 3DC disease control rating, HV activity / PUCCRT 3DC, LV activity at 125.1 g/H (% Control rating) / PUCCRT 1DP, LV activity at 125.1 g/H (% Control rating) / PUCCRT 3DC disease control rating, LV activity at 125.1 g/H / PUCCRT 1DP disease control rating, LV activity at 125.1 g/H / PUCCRT 3DC disease control rating, HV activity at 100 ppm / PUCCRT 1DP disease control rating, HV activity at 100 ppm / HV activity at 100 ppm PUCCRT 3DC (disease control rating) / LV activity at 125.1 g/H PUCCRT 1DP (disease control rating) / LV activity at 125.1 g/H PUCCRT 3DC (disease control rating): A: > 80; B: ≤ 80; C: Not Tested; D: No Activity Observed in the Reported Assay; conditions: low volume application, 125.1 g/H; for PUCCRT 1DP disease control rating, LV activity at 125.1 g/H: 1 day protectant; for PUCCRT 3DC disease control rating, LV activity at 125.1 g/H: 3 day curative

| SMILES | SEPTTR 1DP disease control rating, LV activity at 125.1 g/H (Zymoseptoria tritici) | SEPTTR 3DC disease control rating, LV activity at 125.1 g/H (Zymoseptoria tritici) | PUCCRT 1DP disease control rating, LV activity at 125.1 g/H (Puccinia triticina) | PUCCRT 3DC disease control rating, LV activity at 125.1 g/H (Puccinia triticina) |
| --- | --- | --- | --- | --- |
| CC(=O)Oc1cccnc1C(=O)NC(C)C(=O)OC(C)C(Oc1ccccc1)C(C)C (centres unmarked) [Cmpd 678] | A (> 80) | B (≤ 80) | B (≤ 80) | D |
| CC(=O)OCOc1c(Cl)ccnc1C(=O)NC(C)C(=O)OC(C)C(Oc1ccccc1)C(C)C (centres unmarked) [Cmpd 679] | D | B (≤ 80) | B (≤ 80) | D |
| CCC(CC)C(Oc1cccc(F)c1)C(C)OC(=O)C(CC(C)C)NC(=O)c1nccc(OC)c1OCOC(C)=O (centres unmarked) [Cmpd 680] | B (≤ 80) | B (≤ 80) | D | B (≤ 80) |
| CCC(CC)C(Oc1ccc(Cl)cc1)C(C)OC(=O)C(CC(C)C)NC(=O)c1nccc(OC)c1OCOC(C)=O (centres unmarked) [Cmpd 681] | D | B (≤ 80) | D | D |
| CCC(CC)C(Oc1cc(F)ccc1F)C(C)OC(=O)C(CC(C)C)NC(=O)c1nccc(OC)c1OCOC(C)=O (centres unmarked) [Cmpd 682] | B (≤ 80) | B (≤ 80) | B (≤ 80) | B (≤ 80) |
| CCC(CC)C(Oc1cc(F)cc(Cl)c1)C(C)OC(=O)C(CC(C)C)NC(=O)c1nccc(OC)c1OCOC(C)=O (centres unmarked) [Cmpd 683] | D | B (≤ 80) | D | D |
| CCC(CC)C(Oc1ccc(Cl)cc1Cl)C(C)OC(=O)C(CC(C)C)NC(=O)c1nccc(OC)c1OCOC(C)=O (centres unmarked) [Cmpd 684] | D | D | B (≤ 80) | D |
| CCC(CC)C(Oc1cccc(F)c1)C(C)OC(=O)C(CC(C)C)NC(=O)c1nccc(OC)c1OC(C)=O (centres unmarked) [Cmpd 685] | D | B (≤ 80) | B (≤ 80) | D |
| CCC(CC)C(Oc1ccc(Cl)cc1)C(C)OC(=O)C(CC(C)C)NC(=O)c1nccc(OC)c1OC(C)=O (centres unmarked) [Cmpd 686] | D | B (≤ 80) | D | D |
| CCC(CC)C(Oc1cc(F)ccc1F)C(C)OC(=O)C(CC(C)C)NC(=O)c1nccc(OC)c1OC(C)=O (centres unmarked) [Cmpd 687] | D | B (≤ 80) | D | B (≤ 80) |
| CCC(CC)C(Oc1cc(F)cc(Cl)c1)C(C)OC(=O)C(CC(C)C)NC(=O)c1nccc(OC)c1OC(C)=O (centres unmarked) [Cmpd 688] | D | B (≤ 80) | D | D |
